This note sets out measurements from patent publication US20090253771A1, “INHIBITION OF GLIOTOXIN” (priority 2006, published 2009).

SMILES strings stand for the structures. Where a SMILES comes first, the peptide text is derived from it. The star is where a group is joined. Cbz = O=C(OCc1ccccc1)*; CH2F = FC*

For assay [1], the system named is mouse embryonic fibroblasts (MEFs). Description: Gliotoxin-induced apoptosis in MEFs: nuclear fragmentation (Hoechst 33342), PS exposure (annexin V-FITC) and PI uptake. As to conditions: 1 μM GT, 4 h. It is filed as cell-based. As to the method: (§1) Gliotoxin (GT) was purified from Penicillium terlikowskii as described [Waring, 1988]. For apoptosis induction, 4×10^5 MEFs were incubated with different concentrations of GT or staurosporine (Sigma) for 4 h and apoptosis assays were performed as described below. In some cases the general caspase inhibitor Ac-ZVAD-fmk (Bachem) or the ROS scavengers N-acetylcysteine (NAC) (Sigma) or MnTBAP (Calbiochem) were added as described [Pardo, 2004]. To test the inhibitory potency of Ac-ZVAD-.fmk, MBL-2. Fas cells were incubated with anti-Fas mAb Jo-2 (1 μg/ml) for 24 h in the presence or absence of 100 μM of the caspase inhibitor and cell death was analysed by trypan blue exclusion. Nuclei were stained with 10 μg/ml of Hoechst 33342 (Molecular Probes).
(§2) Phosphatidylserine (PS) exposure and propidium iodide (PI) uptake was analysed by FACS or fluorescence microscopy as described [Pardo, 2004] using the annexin V-FITC kit from BD Pharmingen. The mitochondrial membrane potential was measured with the fluorescent probe 3,3′-dihexyloxacarbocyanine iodide (DiOC6(3), Molecular Probes) and ROS generation with 2-hydroxiethidine (2-HE, Molecular Probes) as described [Pardo, 2004].

Assay [2] shares this test system. Description: Mitochondrial membrane potential (DiOC6(3)) and ROS generation (2-HE) by FACS. It is filed as cell-based. As to conditions: 1 μM GT, 4 h; for effect on GT-induced ROS production: 15 mM scavenger. As to the method:
as §1, §2
A general note: Flow cytometry measures light scatter and fluorescence of single cells or particles in a stream.

For assay [3] the test system is unchanged. The assay can be described thus: Cell death (trypan blue exclusion) and cell detachment by microscopic inspection. It is filed as cell-based. Here is the method: as §1
Assay [4] deals with T1, Bak (Mus musculus, UniProt O08734).
T1 construct: endogenous in cells; host or cells: SV40-transformed mouse embryonic fibroblasts (wt, Bid-/-; Bak-/-xBax-/- as negative control)
T1 sequence (O08734 1-209): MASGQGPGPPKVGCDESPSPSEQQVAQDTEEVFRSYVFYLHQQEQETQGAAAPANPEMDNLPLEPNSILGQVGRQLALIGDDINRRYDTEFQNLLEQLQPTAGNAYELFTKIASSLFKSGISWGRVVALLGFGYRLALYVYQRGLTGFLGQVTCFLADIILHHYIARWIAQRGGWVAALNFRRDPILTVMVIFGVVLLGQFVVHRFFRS
The assay can be described thus: Conformational change of Bak (FACS, N-terminus-specific antibody). As to conditions: 4 h; for effect on GT-induced N-terminal opening of Bak: 100 μM Z-VAD.fmk or 15 mM NAC or MnTBAP. It counts as cell-based. As to the method: (§3) MEFs were fixed in 4% PFA, permeabilized with 0.1% saponin in PBS/5% fetal calf serum (FCS) and incubated with 2 μg/ml rabbit polyclonal anti-Bak (NT, Upstate Biotechnology) 5 μg/ml rabbit polyclonal anti-Bax (NT, Upstate Biotechnology) or 5 μg/ml rabbit purified IgG (control). After two washes with 0.1% saponin in PBS, the cells were incubated with anti rabbit-FITC antibody in 0.1% saponin/PBS/5% FCS, washed twice in 0.1% saponin/PBS, resuspended in 1% PFA/PBS and analysed by FACS with a FACScan (BD) and CellQuest® software.

The subject of assay [5] is caspase-3. Description: Caspase-3 activation (FACS, antibody against the active form). It counts as cell-based, mouse. As to conditions: 1 μM GT, 4 h; wt and Bax−/− MEFs. Here is the method:
Cells were fixed with 4% paraformaldehyde (PFA) and incubated with a monoclonal antibody against the active form of caspase-3 (clone C92605, BD Pharmingen). Following incubation with a FITC-labeled secondary antibody, the cells were analyzed by FACS as described [Pardo, 2004].

The subject of assay [6] is mouse embryonic fibroblasts (MEFs). The assay can be described thus: Cytochrome c release on cells (FACS). The conditions noted are these: 1 μM GT, 4 h. It counts as cell-based. Here is the method:
(§4) Cytochrome c release was quantified by FACS analysis as recently described [Waterhouse, 2003]. Briefly, 1×10^6 of MEFs were mildly permeabilized with 25 μg/ml digitonin plus 100 mM KCl on ice for 5 min. This lead to the cellular loss of cytosolic cytochrome c. Cells were washed once with cold PBS, fixed in 4% PFA, permeabilized with 0.05% saponin and 3% BSA and then incubated with the anti-cytochrome c mAb 6H2.B4 (BD Pharmingen) or mouse IgG isotype control (Jackson) followed by anti-mouse-FITC secondary antibody (Jackson). The cells were resuspended in 100 μl PFA in PBS and analysed by FACS with a FACScan (BD) and CellQuest® software. For the analysis of the nuclear translocation of AIF, cells were fixed, mounted on poly-L-lysine coverslides and stained with a rabbit polyclonal antiAIF antibody (Sigma) as described [Pardo, 2001]. Afterwards the cells were analysed by confocal microscopy using a Leica SP2 confocal microscope and Imaris® software.

Assay [7] has the same test system. The assay can be described thus: Nuclear translocation of AIF (confocal microscopy). It is filed as cell-based. The conditions noted are these: 1 μM GT, 4 h. As to the method:
as §4

The test system of assay [8] is mitochondria isolated from MEFs or FDMs. Description: Cytochrome c release from isolated mitochondria. It counts as biochemical, mouse. Here is the method: 8×10^7 MEFs or FDMs were centrifuged and washed once in PBS. The cell pellets were resuspended in 500 μl MSH-Buffer (210 mM mannitol; 70 mM sucrose; 20 mM HEPES; 1 mM EDTA; pH 7,5; 100 μM PMSF; 400 ng/ml pepstatin; 10 μg/ml leupeptin; 10 μg/ml aprotinin and 5 μg/ml cytochalasin B). The resuspended cell pellet was incubated on ice for 15 min before the cells were broken by passaging 25 times through a 23-gauge needle. The lysate was centrifuged at 500×g for 5 min to remove cell debris and nuclei. A crude mitochondrial pellet was then obtained by centrifugation at 10,000×g for 15 min and resuspended in MSH-Buffer. The isolated mitochondria were incubated with different concentrations of GT (10 μM, 20 μM and 50 μM), or 40 nM of recombinant tBid as a positive control at 37° C. for 4 hr. Following incubation, the mitochondria were pelleted, and both, pellet and supernatant were tested for cytochrome c release by SDS-PAGE.

The test system of assay [9] is Fas-negative cells. Description: GT-induced pro-apoptotic processes in Fas-negative cells (cell adhesion / cell death, neutral red). It is filed as cell-based. Here is the method:
This pro-apoptotic activity may be inhibited by GT-inhibitors, e.g. anti-GT-antibodies. The degree of cell adhesion and/or cell death may be determined by standard methods. For example, the cells may be labelled with a suitable dye, e.g. neutral red, allowed to adhere and incubated subsequently with GT in the presence of a test compound. After an appropriate incubation time, the non-adherent cells may be removed and the remaining adherent cells and/or the removed cells may be determined. For example, the dye neutral red may be released from cells by […]/ethanol. Non-adherent cells equating with cell death may be quantitatively determined, e.g. with an optical detection method, preferably by measuring the absorbance at 540 nm according to standard methods, e.g. in a microplate reader.
Screening for antifungal agents capable of inhibiting the interaction between GT and Bak can be performed by means of the methylcholanthrene-induced cell line MC.Fas^−/− (date of deposition at DSMZ: 4 May 2006) stained with the vital dye Neutral Red. […] Cell loss equates with cell death resulting from GT-induced pro-apoptotic processes, and is quantified automatically by loss of absorbance at 540 nm using a microplate reader.

Assay [10] concerns MBL-2.Fas cells. The assay can be described thus: Anti-Fas mAb Jo-2 induced cell death (trypan blue exclusion), test of the caspase inhibitor. It is filed as cell-based. The conditions noted are these: 1 μg/ml Jo-2, 24 h; 100 μM inhibitor. As to the method: as §1
In assay [11] the test system is Bax. The assay can be described thus: Conformational change of Bax (FACS, N-terminus-specific antibody). As to conditions: staurosporine 1 and 5 μM, 4 h, MEFs. It is filed as cell-based, mouse. Here is the method:
as §3

Where [12] appears, read: 10, 20 or 50 μM GT, 4 h, 37° C.

On to `CN1C(=O)[C@]23CC4=CC=C[C@H](O)[C@H]4N2C(=O)[C@@]1(CO)SS3` [GT, Gliotoxin], for which the “apoptotic cells (PS exposed, annexin-V staining, without plasma membrane disruption)” value in assay [1] (wt MEFs) was roughly 50%. In [1] (wt MEFs, Hoechst 33342), the nuclear fragmentation result is given as “nuclear fragmentation in the majority”. The “number of annexin-V/PI positive cells vs mock treated cells” value in assay [1] (Bak−/− and Bak−/−×Bax−/− MEFs) is given as “did not”; in assay [1] (wt, Bak−/− (so in the source) and Bid−/− MEFs) it was “significantly increased”. In assay [2] (wt, Bax−/− and Bid−/− MEFs), the ROS production entry is reported as “parallel increase”. In addition, the “mitochondrial membrane potential (Δψm)” value in [2] (wt, Bax−/− and Bid−/− MEFs) is reported as “significant reduction”. Moreover, the “GT-mediated cell death (trypan blue exclusion)” value in assay [3] (increasing amounts of GT, 4 h, Bak−/− and Bak−/−×Bax−/− MEFs, not wt or Bax−/−) is on record as “significantly reduced”. The “GT-induced loss of cell adherence” value in [3] (increasing amounts of GT, 4 h, Bax- and/or Bak-deficient MEFs vs wt) is reported as “only marginally, if at all, diminished”. In addition, in assay [4] (1 μM GT, wt MEFs), the “N-terminal epitope exposure (conformational change) of Bak” value is “readily induce N-terminal epitope exposure in Bak”. The caspase-3 activation result in assay [5] is “significantly activated”. Also, the mitochondrial cytochrome c entry in assay [6] (Bak−/− or Bak−/−×Bax−/− MEFs) was “retained”; in assay [6] (wt and Bax−/− MEFs), “reduced”. The “localization of AIF” value in assay [7] (Bak−/− and Bak−/−×Bax−/− MEFs) was “retained most of the AIF in the mitochondria”. For the same molecule, the “cells with cytosolic localization and nuclear translocation of AIF” value in assay [7] (wt and Bax−/− MEFs) is “a high portion”. Also, the “cytochrome c release from isolated mitochondria” value in [8] (setting [12]) is “dose-dependent manner”; in [8] (mitochondria from Bak−/− or Bak−/−×Bax−/− MEFs or FDMs), “absent”. Moreover, the “cytochrome c release from isolated mitochondria compared with 40 nM recombinant tBid” value in assay [8] (setting [12]) was “as efficient as that induced by recombinant tBid”. In addition, the “induction of pro-apoptotic processes resulting in loss of cell adhesion and cell death” value in assay [9] is reported as “dose-dependent manner”.
On to `O=C(O)c1ccc(/C2=C3\C=CC(=N3)/C(c3ccc(C(=O)O)cc3)=c3/cc/c4[n]3[Mn]([Cl])[n]3c2ccc3/C(c2ccc(C(=O)O)cc2)=C2/C=CC(=N2)\C=4c2ccc(C(=O)O)cc2)cc1` [MnTBAP, Mn(III) tetrakis(4-benzoic acid)porphirin chloride], for which the “effect on GT-induced ROS production” value in assay [2] (wt MEFs) is “significantly reduced”. In addition, in assay [4] (wt MEFs, 1 μM GT), the “effect on GT-induced N-terminal opening of Bak” value (“effect … of Bak” below) is on record as “unaffected”.
For `CC(=O)N[C@@H](CS)C(=O)O` [NAC, N-acetylcysteine], the “effect on GT-induced PS exposure and plasma membrane permeability” value in [1] (wt MEFs, 15 mM NAC) is given as “abrogated”. Besides, the “effect on GT-induced reduction of the mitochondrial Δψm” value in assay [2] (wt MEFs, 15 mM NAC) was “abrogated”. The “effect on GT-induced ROS production” value in assay [2] (wt MEFs) is listed as “significantly reduced”. Besides, in assay [3] (wt MEFs, 1 μM GT, 4 h, NAC), the “effect on GT-induced cell death (trypan blue staining)” value was “totally inhibited” and the “effect on GT-induced cell detachment” value is “totally inhibited”. For the same molecule, the “effect … of Bak” value in assay [4] (wt MEFs, 1 μM GT) was “unaffected”. For the same molecule, in assay [6] (wt MEFs, 15 mM NAC), the “effect on GT-induced cytochrome c release from mitochondria” value is recorded as “greatly diminished”. Also, in assay [7] (wt MEFs, 15 mM NAC), the “effect on GT-induced AIF release from mitochondria” value is reported as “greatly diminished”.
For `COC(=O)C[C@H](NC(=O)[C@H](C)NC(=O)[C@@H](NC(=O)OCc1ccccc1)C(C)C)C(=O)CF` [Z-VAD.fmk] (Cbz-Val-Ala-Asp(OMe)-CH2F), the “effect on GT-induced annexin-V/PI staining” value in [1] (wt MEFs, 100 μM Z-VAD.fmk) was “reduced”. The “effect on loss of the mitochondrial Δψm in GT-treated cells” value in assay [2] (wt MEFs, 100 μM Z-VAD.fmk) is given as “did not prevent”. For the same molecule, the “effect on GT-induced cell death” value in assay [3] (wt MEFs, GT 4 h, Z-VAD.fmk) is “reduced”. Also, in assay [4] (wt MEFs, 1 μM GT), the “effect … of Bak” value is on record as “unaffected”. The “effect on GT-induced cytochrome c release” value in assay [6] (wt MEFs, 100 μM Z-VAD) is listed as “not blocked”. Further, the “effect on GT-induced AIF release” value in assay [7] (wt MEFs, 100 μM Z-VAD) was “not blocked”. Besides, the “effect on apoptosis induced by the anti-Fas antibody Jo-2” value in [10] is given as “blocked”.
For `CN[C@@H]1C[C@H]2O[C@@](C)([C@@H]1OC)n1c3ccccc3c3c4c(c5c6ccccc6n2c5c31)C(=O)NC4` [staurosporine], the “activation of Bak” value in assay [4] (staurosporine 1 and 5 μM, MEFs) was “activates both Bax and Bak”. Also, the “N-terminal conformational change of Bax” value in assay [11] was “led to the expected N-terminal opening of Bax”.
